The source of these data is publication PMC4583449, “Characterisation of (R)-2-(2-Fluorobiphenyl-4-yl)-N-(3-Methylpyridin-2-yl)Propanamide as a Dual Fatty Acid Amide Hydrolase: Cyclooxygenase Inhibitor” (PLoS ONE, 2015).

Values joined by “and” are separate entries in the source; they are usually repeats but may differ in a detail not shown here. Identical values can stand only once. Like-named read-outs stand apart in the source and are kept apart here.

One assay concerns the target T1, ovine COX-1 (Ovis aries, UniProt P05979).
T1 construct: purchased Cayman Chemical Co. 60100
T1 sequence (P05979 25-600): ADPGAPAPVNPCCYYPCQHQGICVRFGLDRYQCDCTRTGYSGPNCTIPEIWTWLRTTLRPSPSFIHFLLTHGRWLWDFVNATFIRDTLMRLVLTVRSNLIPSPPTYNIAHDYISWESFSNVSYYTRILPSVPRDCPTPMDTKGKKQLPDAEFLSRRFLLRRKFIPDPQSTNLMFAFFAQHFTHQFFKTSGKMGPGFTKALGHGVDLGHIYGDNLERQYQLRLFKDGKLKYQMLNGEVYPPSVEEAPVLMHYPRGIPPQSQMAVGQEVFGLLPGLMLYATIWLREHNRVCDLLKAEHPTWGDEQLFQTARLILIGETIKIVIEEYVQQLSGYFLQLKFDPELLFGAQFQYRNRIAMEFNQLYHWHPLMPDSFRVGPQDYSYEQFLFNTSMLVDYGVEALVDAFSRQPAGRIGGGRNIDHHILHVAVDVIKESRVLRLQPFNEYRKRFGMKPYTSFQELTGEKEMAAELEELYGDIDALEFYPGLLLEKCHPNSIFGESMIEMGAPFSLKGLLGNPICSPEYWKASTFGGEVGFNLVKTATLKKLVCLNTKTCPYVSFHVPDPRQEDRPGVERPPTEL
Nature of the assay: COX-1 inhibition, oxygraphic method (oxygen electrode). Format: biochemical. The following applies: 10 μM arachidonic acid; no preincubation phase; approximate, from initial velocities. On the procedure:
(§1) The assay was performed according to Meade et al. with minor modifications. An oxygen electrode chamber with integral stirring (Oxygraph System, Hansatech Instruments, King´s Lynn, U.K.) was calibrated daily to ambient temperature and air pressure. The assay buffer contained 0.1 M Tris-HCl buffer pH 7.4, 1 μM haematin, 2 mM phenol, 5 mM EDTA, 10 μM substrate (arachidonic acid or 2-AG) (final assay volume was 2 ml). After addition of (R)- or (S)-Flu-AM1 dissolved in ethanol (final assay concentration 1%), a baseline was established for 5 min before initiation of reaction by addition of 200 units ovine COX-1 or human recombinant COX-2. The change in oxygen consumption as a measurement of enzyme activity was monitored for approximately 5 min.

A further assay concerns the target T2, human recombinant COX-2 (Homo sapiens, UniProt P35354).
T2 construct: purchased Cayman Chemical Co. 60122
T2 sequence (P35354 18-604): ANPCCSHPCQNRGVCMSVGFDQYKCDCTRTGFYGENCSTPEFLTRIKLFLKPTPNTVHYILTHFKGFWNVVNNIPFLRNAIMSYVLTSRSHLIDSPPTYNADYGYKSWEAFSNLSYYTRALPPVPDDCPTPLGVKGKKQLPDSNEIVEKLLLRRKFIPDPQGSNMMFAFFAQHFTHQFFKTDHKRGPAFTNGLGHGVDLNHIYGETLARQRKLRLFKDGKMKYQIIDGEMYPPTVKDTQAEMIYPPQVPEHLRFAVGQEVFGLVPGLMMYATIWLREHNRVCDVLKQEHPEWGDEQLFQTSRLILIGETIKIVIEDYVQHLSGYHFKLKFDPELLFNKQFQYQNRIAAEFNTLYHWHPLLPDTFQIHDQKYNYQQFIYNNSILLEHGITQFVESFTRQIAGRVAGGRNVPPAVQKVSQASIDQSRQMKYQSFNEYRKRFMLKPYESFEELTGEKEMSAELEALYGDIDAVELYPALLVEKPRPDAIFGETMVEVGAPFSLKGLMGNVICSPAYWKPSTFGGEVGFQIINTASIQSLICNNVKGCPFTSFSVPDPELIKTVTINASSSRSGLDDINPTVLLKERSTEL
The experiment in a line: COX-2 inhibition, oxygraphic method (oxygen electrode). The assay is classed as biochemical. The following applies: no preincubation phase, approximate, from initial velocities. On the procedure: as §1

The next assay has as its target T3, mouse brain FAAH (Mus musculus, UniProt O08914).
T3 construct: Brains from male B6CBAF1/J mice, stored at -80°C, were thawed, weighed and homogenized in cold buffer; from tissue; host or cells: brain of male B6CBAF1/J mice (washed membrane pellet homogenate)
T3 sequence (O08914 1-579): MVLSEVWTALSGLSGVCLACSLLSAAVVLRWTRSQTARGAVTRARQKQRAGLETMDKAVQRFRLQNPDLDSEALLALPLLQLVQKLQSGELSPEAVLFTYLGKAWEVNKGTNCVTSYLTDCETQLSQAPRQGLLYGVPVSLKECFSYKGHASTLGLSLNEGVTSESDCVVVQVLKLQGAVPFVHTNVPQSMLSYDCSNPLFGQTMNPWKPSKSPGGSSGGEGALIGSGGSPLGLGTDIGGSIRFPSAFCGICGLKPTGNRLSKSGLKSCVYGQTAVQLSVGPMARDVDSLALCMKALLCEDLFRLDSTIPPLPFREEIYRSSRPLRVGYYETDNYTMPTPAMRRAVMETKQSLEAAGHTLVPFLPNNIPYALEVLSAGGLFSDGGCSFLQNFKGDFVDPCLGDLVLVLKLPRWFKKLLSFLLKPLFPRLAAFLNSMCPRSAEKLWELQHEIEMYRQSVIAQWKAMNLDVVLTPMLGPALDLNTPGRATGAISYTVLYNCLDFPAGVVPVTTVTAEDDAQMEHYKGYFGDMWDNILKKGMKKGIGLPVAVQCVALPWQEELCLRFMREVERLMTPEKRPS
The experiment in a line: FAAH assay, [3H]AEA hydrolysis in mouse brain homogenates. Format: biochemical. The following applies: 0.5 μM [3H]AEA; read-out: IC50 inhibition of [3H]AEA hydrolysis in mouse brain homogenates. How it is done: Brains from male B6CBAF1/J mice, stored at -80°C, were thawed, weighed and homogenized in cold buffer (20 mM HEPES, 1 mM MgCl2 pH 7.0). Homogenates were centrifuged (35,000 g at 4°C for 20 min) before the pellet was resuspended in cold homogenization buffer. Centrifugation and resuspension was repeated twice. The suspension was incubated at 37°C for 15 min to degrade any endogenous substrate able to interfere with the FAAH assay. After centrifugation (35,000 g at 4°C for 20 min), the pellet was resuspended in cold buffer (50 mM Tris-HCl, 1mM EDTA, 3 mM MgCl2, pH 7.4). The protein concentration was determined according to the Bradford assay after which the samples were frozen in aliquots at -80°C. Ethical permission for the animal experiments was obtained from the local animal research ethical committee (Umeå Ethical Committee for Animal Research, Umeå, Sweden). FAAH was assayed using the method of Boldrup et al., whereby homogenates (0.3 μg protein / assay) in assay buffer (10 mM Tris-HCl, 1mM EDTA, pH 7.4), test compounds and substrate ([^3H]AEA in 10 mM Tris-HCl, 1mM EDTA, pH 7.4 containing 10 mg/ml fatty acid-free bovine serum, assay concentration 0.5 μM unless otherwise stated) were incubated for 10 min at 37°C. Thereafter, 400 μL activated charcoal (80 μL activated charcoal + 320 μL 0.5 M HCl) was added and the samples were placed on ice and centrifuged at 2500 rpm for 10 min. Aliquots (200 μL) of the supernatant was analyzed for tritium content by liquid scintillation spectroscopy with quench correction.

In assay [1] the target is T4, rat brain FAAH (Rattus norvegicus, UniProt P97612).
T4 construct: the racemate was studied in rat brain homogenates, whereas mouse brain homogenates were used here; from tissue; host or cells: rat brain homogenates
T4 sequence (P97612 1-579): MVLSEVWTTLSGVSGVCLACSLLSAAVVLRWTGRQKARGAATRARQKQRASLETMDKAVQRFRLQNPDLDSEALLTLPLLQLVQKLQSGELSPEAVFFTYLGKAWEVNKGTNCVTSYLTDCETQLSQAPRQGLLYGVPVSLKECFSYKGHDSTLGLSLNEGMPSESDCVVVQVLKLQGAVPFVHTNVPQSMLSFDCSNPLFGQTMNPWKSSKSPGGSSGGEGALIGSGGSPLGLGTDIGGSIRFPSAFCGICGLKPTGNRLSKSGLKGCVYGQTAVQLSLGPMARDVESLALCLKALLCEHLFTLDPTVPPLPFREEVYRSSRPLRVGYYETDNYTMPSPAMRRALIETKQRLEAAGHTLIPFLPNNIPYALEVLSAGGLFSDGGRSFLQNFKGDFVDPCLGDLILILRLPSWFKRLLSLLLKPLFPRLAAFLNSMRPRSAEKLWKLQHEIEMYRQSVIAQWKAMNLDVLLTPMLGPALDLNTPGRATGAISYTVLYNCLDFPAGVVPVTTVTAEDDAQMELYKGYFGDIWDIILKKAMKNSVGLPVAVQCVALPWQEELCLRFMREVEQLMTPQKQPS
Nature of the assay: [3H]AEA hydrolysis in rat brain homogenates. The following applies: current authors, unpublished data; read-out: IC50 inhibition of [3H]AEA hydrolysis in rat brain homogenates. Format: biochemical.

Assay [2] deals with T4, rat brain FAAH. The following applies: racemate; read-out: IC50 FAAH, rat brain homogenates; cited from earlier work.

As for `Cc1cccnc1NC(=O)[C@@H](C)c1ccc(-c2ccccc2)c(F)c1` [(S)-Flu-AM1], the half-maximal inhibitory concentration (IC50) at ovine COX-1 was 3000 nM and ~3000 nM; at human recombinant COX-2 (10 μM 2-AG, read-out: IC50 COX-2 (2-AG)), 700 nM and ~700 nM; on human recombinant COX-2 (10 μM arachidonic acid, read-out: IC50 COX-2 (arachidonic acid)), 10000 nM and ~10000 nM; on mouse brain FAAH, 11000 nM; on rat brain FAAH [1] it was 990 nM.
In the case of `Cc1cccnc1NC(=O)C(C)c1ccc(-c2ccccc2)c(F)c1` (stereo not drawn) [Flu-AM1, 2-(2-fluorobiphenyl-4-yl)-N-(3-methylpyridin-2-yl)propanamide], the IC50 on rat brain FAAH [2] is 440 nM.
